Measured values from PubChem BioAssay (NCI).
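Step 1: Grow cells in 96-well plates. Step 2: Expose to compound for 48 hours at 5 concentrations. Step 3: Interpolate endpoints linearly; if unreached, use highest concentration. Abbreviation: GI50, concentration required for 50% inhibition of growth. The concentration for full growth arrest is given as TGI.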

Tests used:
Assay in all cases: inhibition of tumour cell growth, NCI panel, 48 h
SK-OV-3 ovarian = system: SK-OV-3 ovarian
SW-620 colon = system: SW-620 colon
RPMI-8226 leukemia = system: RPMI-8226 leukemia
HOP-92 NSCLC = system: HOP-92 NSCLC
HOP-62 NSCLC = system: HOP-62 NSCLC
A549 NSCLC = system: A549 NSCLC
OVCAR-5 ovarian = system: OVCAR-5 ovarian
SF-268 CNS = system: SF-268 CNS
MDA-MB-435 = system: MDA-MB-435
SR leukemia = system: SR leukemia

Structure (SMILES)	TGI (SK-OV-3 ovarian) [µM]	TGI (SW-620 colon) [µM]	TGI (RPMI-8226 leukemia) [µM]	TGI (HOP-92 NSCLC) [µM]	TGI (HOP-62 NSCLC) [µM]	TGI (A549 NSCLC) [µM]	TGI (OVCAR-5 ovarian) [µM]	TGI (SF-268 CNS) [µM]	TGI (MDA-MB-435) [µM]	TGI (SR leukemia) [µM]	GI50 (SK-OV-3 ovarian) [µM]	GI50 (SW-620 colon) [µM]	GI50 (MDA-MB-435) [µM]	GI50 (RPMI-8226 leukemia) [µM]	GI50 (HOP-92 NSCLC) [µM]	GI50 (HOP-62 NSCLC) [µM]	GI50 (A549 NSCLC) [µM]	GI50 (OVCAR-5 ovarian) [µM]	GI50 (SF-268 CNS) [µM]
COC(=O)c1ccc(C=C(C#N)C#N)cc1	> 100	45.1	72.6	39.6	74.8	> 100	> 100	59.1											
COC(=O)[C@@]1(NC(=O)C(CC(=O)OC(C)(C)C)NC(=O)OC(C)(C)C)C[C@H]1C (stereo not given in full)	> 100	> 100	> 100		> 100	> 100	> 100	> 100	> 100										
NC(=O)c1sc2nc3ccccc3n2c1N	89.4	> 100	> 100	> 100	> 100	> 100	> 100	> 100	> 100										
CC(C)=CCC/C(C)=C/CCC1(C)C=Cc2c(c3ccccc3oc2=O)O1 (stereo not given)	50.8	33.7	63.8	25	17.8	33.2	32.6	40.8											
COc1ccc(C(=O)Oc2c(C#N)sc3c2c(=O)n(-c2ccccc2)c(=S)n3-c2ccccc2)cc1	> 100	> 100	47.1	67.5	73.9	> 100	68.5	> 100	60.7										
CCC(C)N1CN(c2ccccc2)C2(CCN(CCCSc3ccc(F)cc3)CC2)C1=O (stereo not given)	19.1	17.3	5.72		4.74	15.1	7.06	23.7	11.7	46.7									
COc1ccc(-n2c(C)nc3ccc(NC4OC(CO)C(O)C(O)C4O)cc3c2=O)cc1 (stereo not given)		> 100	> 100		> 100		> 100	> 100	> 100	> 100									
CN(C)C(F)=PC(F)(F)F (stereo not given)	> 100	> 100	> 100	> 100	> 100	> 100	> 100	> 100											
CC1CC(N2CCOCC2)=Nc2ccccc2N1Cc1ccccc1 (stereo not given)	> 100	> 100	> 100		> 100	> 100	> 100	> 100	> 100										
O=C(Nc1ccc2[nH]c(C(=O)N3CC(CCl)c4ccc([N+](=O)[O-])cc43)cc2c1)c1cc2ccccc2o1 (stereo not given)	> 1100	> 1100	> 1100	> 1100	> 1100	> 1100	> 1100	> 1100	> 1100										
COc1cc(-c2cc(=O)c3ccccc3[nH]2)cc(OC)c1OC	> 75	> 75	> 75		> 75	> 75		> 75		> 75									
CSC(=N)N1N=C2/C(=C/c3ccccc3)CCC[C@H]2[C@H]1c1ccccc1	18.2	15.3	7.12	19.5	20.8	16.3	14.7	37.9		4.6									
CC(C)N(C(=O)C12C3C4C1C1C2C3C41C(=O)N(C(C)C)C(C)C)C(C)C (stereo not given)	> 50	> 50	> 50		> 50	> 50	> 50	> 50											
CC1SC(c2ccc(Cl)cc2)N(CCc2cccs2)C1=O (stereo not given)	5.79	3.22	4.55	2.2	3.16	7.41	4.56	3.49	3.06		2.05	1.54	1.51	1.33	0.855	1.61	2.07	1.85	1.55
Cc1c(C2=NN=C(N=Nc3c(O)cccc3O)/C2=C/c2ccccc2)c(=O)n(-c2ccccc2)n1C	> 100	> 100	> 100	> 100	> 100	> 100	> 100	> 100											
O=c1n(-c2ccccc2)c(=O)n2c(-c3ccccc3)c(-c3ccccc3)n12	> 100	> 100		> 100	> 100	> 100	> 100			> 100									
C=C(CCC=C(C)C)C1CC=C(C)CC1 (stereo not given)	> 100	53.6			37.4	39	> 100	> 100	35.7										
C/C(N=NS(=O)(=O)c1ccc(C)cc1)=C1\C=CC=CN1O	> 100	> 100	> 100	> 100	> 100	> 100	> 100	> 100		> 100									
